This is an account of results in the OPERA property sets (Mansouri et al. 2018).

Each structure is given as a SMILES string.

In general, logP refers to the decadic logarithm of the partition coefficient of the neutral form, usually between octanol and water. Read a low logP as lower lipophilicity. Molecule `CCc1cc(Br)ccc1NC(C)=O` gave a lipophilicity (logP) of 2.27.

`CCOc1ccc(C(N)=O)cc1` returned a logP of 1.3.

In turn, `CCCCc1ccc(NC(C)=O)cc1` showed a logP of 3.3.

`CC(=O)Nc1c(C)cc(C)cc1[N+](=O)[O-]` came in with a log partition coefficient (logP) of 1.18.

Molecule `C=CCOc1cc(NC(C)=O)c(F)cc1Cl` showed a log partition coefficient (logP) of 2.76.

For the molecule `COc1cccc(OC)c1C(N)=O`, the logP is -0.22.

Take `CC(=O)Nc1ccc(C)cc1`: the logP was determined as 1.7.

The molecule `O=[N+]([O-])c1ccc(Cl)cc1[N+](=O)[O-]` returned a logP of 2.18.

Take `CC(=O)Nc1c(F)c(F)c(F)c(F)c1F`: the logP was 1.7.

In the case of `CC(=O)Nc1ccc(C)c(C)c1`, the logP was determined as 2.1.

Molecule `COc1ccc(OC)c(Cl)c1` returned a logP of 2.69.

Turning to `CC(=O)Nc1ccc(Oc2ccccn2)cc1`, the logP stood at 1.57.

For `CC(=O)Nc1cc(C(F)(F)F)c(F)cc1F`, the logP was 2.34.

In turn, `COc1cc(Br)ccc1NC(C)=O` registered a logP of 2.02.

`CC(=O)Nc1ccc(Cl)c(Cl)c1` displayed a logP of 3.

For `COc1ccc(C)c(OC)c1`, the logP came to 2.76.

In turn, `CC(=O)Nc1cc(C(F)(F)F)c(Cl)cc1Cl` registered a logP of 3.24.

Consider `Cc1cccc(Cl)c1C(N)=O`, for which the logP came to 0.89.

The molecule `CC(=O)Nc1cc(C(F)(F)F)c(Br)cc1F` gave a logP of 3.17.

In the case of `CC(=O)Nc1ccc(C(N)=O)cc1`, the logP amounted to 0.01.

In turn, `CC(=O)Nc1cc(Cl)c(F)c(Cl)c1F` registered a logP of 2.9.

With `Cc1cccc([N+](=O)[O-])c1C(N)=O`, the logP was 0.1.

For the molecule `CC(=O)Nc1cc([N+](=O)[O-])c(Br)cc1F`, the logP worked out at 2.11.

`CC(=O)Nc1ccc(Cl)cc1F` had a logP of 1.91.

With `COc1cccc([N+](=O)[O-])c1C`, the logP worked out at 2.68.

`COc1ccc(NC(C)=O)c([N+](=O)[O-])c1` had a logP of 1.09.

`CC(=O)Nc1cccc(Cl)c1` displayed a logP of 2.15.

For the molecule `NC(=O)c1c(Cl)cccc1Br`, the logP is 1.

With `CC(=O)Nc1c([N+](=O)[O-])cccc1[N+](=O)[O-]`, the logP worked out at 0.56.

In the case of `CC(=O)Nc1ccccc1F`, the logP came out at 1.03.

As to `CC(=O)Nc1c(C)cccc1Cl`, the logP was determined as 1.22.

As for `COc1cccc(OC)c1`, the logP came out at 2.21.

In turn, `CC(=O)Nc1cccc(Cl)c1C` yielded a logP of 1.82.

`NC(=O)c1ccccc1C(F)(F)F` came in with a logP of 0.68.

`COc1ccccc1Cl` yielded a logP of 2.68.

Take `NC(=O)c1c(Cl)cccc1[N+](=O)[O-]`: the logP worked out at 0.12.

Consider `CCc1ccccc1NC(C)=O`, for which the lipophilicity (logP) is 1.32.

In the case of `CC(=O)Nc1cc(C)c(C)c(C)c1`, the logP came out at 2.5.

`CCCCc1ccc(NC(C)=O)c([N+](=O)[O-])c1` came in with a logP of 3.1.

As to `NC(=O)c1c(F)cccc1Br`, the logP was 0.63.

For `COc1c(Cl)cccc1NC(C)=O`, the logP was determined as 1.68.

Regarding `CC(=O)Nc1c(Br)cccc1Br`, the logP worked out at 1.53.

For `CC(=O)Nc1ccc(C)cc1[N+](=O)[O-]`, the logP is 1.49.

`CC(=O)Nc1cc(Cl)cc(C(F)(F)F)c1Cl` gave a logP of 3.27.

The molecule `CC(=O)Nc1c(F)cccc1F` had a logP of 0.69.

In turn, `CC(=O)Nc1cccc(Br)c1` yielded a logP of 2.31.

On to `NC(=O)c1c(F)cccc1Cl`, for which the logP stood at 0.49.

`CC(=O)Nc1ccc(C)cc1C`: the logP is 1.46.

`CC(=O)Nc1ccc(Cl)c(C(F)(F)F)c1`: the logP came to 3.33.

The molecule `CC(=O)Nc1cc(C(F)(F)F)c(Cl)cc1F` registered a logP of 3.02.

Molecule `CCc1ccccc1OC` returned a lipophilicity (logP) of 3.18.

For `CC(=O)Nc1cc(C)c(Br)c(C)c1`, the log partition coefficient (logP) was determined as 3.28.

Turning to `NC(=O)c1ccccc1Cl`, the logP stood at 0.64.

Take `CC(=O)Nc1ccccc1C(F)(F)F`: the log partition coefficient (logP) is 1.17.

As for `NC(=O)c1c(Br)cccc1Br`, the logP was 1. This logP and that of the molecule before are within 0.2 log units of each other.

As for `CC(C)(C)c1ccc(C(N)=O)cc1`, the logP was 2.51.

On to `Cc1ccccc1C(N)=O`, for which the logP is 0.76.

In turn, `CC(=O)Nc1ccc(Br)c(C)c1Cl` yielded a logP of 2.73.

The molecule `CC(=O)Nc1c(C)cccc1[N+](=O)[O-]` came in with a logP of 0.61.

As to `CC(=O)Nc1ccc(Cl)c(Cl)c1Cl`, the lipophilicity (logP) stood at 2.88.

In turn, `NC(=O)c1c(Br)cccc1[N+](=O)[O-]` had a logP of 0.28.

On to `COc1ccccc1C(=O)N(C)C`, for which the logP was determined as 0.71.

As for `CC(=O)Nc1cccc(F)c1`, the logP came out at 1.65.

On to `CCc1cccc(CC)c1NC(C)=O`, for which the lipophilicity (logP) came out at 1.85.

`CC(C)c1ccccc1C(N)=O` yielded a logP of 1.39.

`CC(=O)Nc1cc(C(F)(F)F)cc(C(F)(F)F)c1` registered a log partition coefficient (logP) of 3.72.

`CCCCc1ccc(NC(C)=O)cc1C`: the logP was 3.64.

Regarding `CC(=O)Nc1cc(C)ccc1C`, the logP was determined as 1.47.

The molecule `CC(=O)Nc1cccc(Cl)c1F` showed a logP of 1.83.

In turn, `CC(=O)Nc1ccccc1-c1ccccc1` came in with a logP of 2.02. The logP values of the last two molecules are within 0.2 log units of each other.

Consider `COc1ccc(NC(C)=O)cc1Cl`, for which the logP is 1.81.

For `CCc1ccc(NC(C)=O)cc1`, the logP stood at 2.2.

As to `N#Cc1ccccc1C#N`, the log partition coefficient (logP) was 0.99.

Molecule `CC(=O)Nc1c(C)cccc1C` returned a logP of 1.07. This logP and that of the molecule before are within 0.2 log units of each other.

Regarding `CC(=O)Nc1ccc(Cl)cc1Cl`, the logP turned out to be 2.18.

For the molecule `CC(=O)Nc1cc(C)cc(C)c1`, the logP amounted to 2.17.

`CC(=O)Nc1cc(Cl)ccc1C` showed a logP of 1.82.

With `CC(C)c1ccccc1[N+](=O)[O-]`, the logP was 3.34.

For `Cc1cccc(C)c1C(N)=O`, the logP amounted to 0.9.

`N#Cc1ccccc1[N+](=O)[O-]` returned a logP of 1.02. The logP values of the last two molecules are within 0.2 log units of each other.

`CC(=O)Nc1c(C)cc(Br)cc1C` showed a logP of 2.12.

As for `COc1cccc(OC)c1C`, the logP is 2.87.

As for `CC(=O)Nc1ccc(Br)c(Cl)c1C`, the logP worked out at 2.69.

`CC(=O)Nc1ccc(Cl)cc1[N+](=O)[O-]` showed a logP of 1.78.

In turn, `COc1c(C)cccc1NC(C)=O` yielded a logP of 1.28.

The molecule `CC(=O)Nc1ccc(Br)c(Cl)c1F` registered a lipophilicity (logP) of 2.86.

In turn, `CC(=O)Nc1cccc(Cl)c1Cl` came in with a logP of 2.09.

Regarding `CC(=O)Nc1c(F)ccc(C(F)(F)F)c1Br`, the logP is 2.22.

`CC(=O)Nc1cc(C)c(O)cc1C` displayed a logP of 0.6.

In turn, `CC(=O)Nc1cccc([N+](=O)[O-])c1` gave a logP of 1.47.

For the molecule `CC(=O)Nc1ccc(Br)c(C)c1`, the logP stood at 2.8.

`CC(=O)Nc1ccc(OC(F)(F)F)cc1` came in with a log partition coefficient (logP) of 2.62.

As for `CC(=O)Nc1ccccc1Oc1ccccc1`, the logP came to 2.37.

Turning to `CC(=O)Nc1c(C(C)C)cccc1C(C)C`, the logP turned out to be 2.41.

As for `CC(=O)Nc1ccc(Cl)cc1C(F)(F)F`, the logP was found to be 1.98.

Regarding `NC(=O)c1ccccc1F`, the logP was found to be 0.59.

In the case of `CCc1cccc(C)c1NC(C)=O`, the logP is 1.41.

`CC(=O)Nc1cc(Cl)cc(Cl)c1Br` showed a logP of 3.04.

In the case of `COc1ccccc1F`, the logP turned out to be 2.14.

`COc1cccc(NC(C)=O)c1C`: the log partition coefficient (logP) is 1.13.

`CC(=O)Nc1cc(Cl)cc(C(F)(F)F)c1F` came in with a lipophilicity (logP) of 3.15.

Regarding `CCc1ccccc1C(N)=O`, the logP was found to be 1.17.

The molecule `CC(=O)Nc1cc(Cl)cc(Cl)c1` yielded a logP of 3.17.

Regarding `N#Cc1cccc(C(N)=O)c1`, the logP was 0.52.

For `CC(=O)Nc1cc(C(F)(F)F)ccc1Cl`, the logP was 2.24.

The molecule `CC(=O)Nc1c(Cl)cccc1Cl` registered a log partition coefficient (logP) of 1.32.

As for `COc1ccccc1Br`, the logP was found to be 2.86.

The molecule `COc1cccc(Cl)c1C(N)=O` had a logP of 0.59.

Molecule `CC(=O)Nc1ccccc1Br` registered a lipophilicity (logP) of 1.34.

With `CC(=O)Nc1cc(Br)cc(C(F)(F)F)c1Cl`, the lipophilicity (logP) was 3.41.

In the case of `CCCCc1ccc(NC(C)=O)c(C)c1`, the logP turned out to be 3.1.

Turning to `CC(=O)Nc1ccc(Br)cc1C`, the logP was determined as 2.03.

In the case of `CC(=O)Nc1cccc(C)c1C`, the logP worked out at 1.35.

On to `NC(=O)c1c(F)cccc1F`, for which the logP was found to be 0.25.

As to `COc1cccc(NC(C)=O)c1`, the logP was 1.3.

As to `NC(=O)c1c(Cl)cccc1Cl`, the log partition coefficient (logP) stood at 0.77.

`CC(=O)Nc1ccc(C)c(C)c1C` showed a logP of 1.76.

`CCCCc1ccc(NC(C)=O)c(Br)c1` came in with a logP of 3.39.

Molecule `CC(=O)Nc1cc(C(F)(F)F)ccc1F` showed a logP of 2.24.

Regarding `CC(=O)Nc1cc(Cl)c(Cl)c(Cl)c1`, the logP turned out to be 3.76.

Consider `CC(=O)Nc1cc(Cl)ccc1Cl`, for which the logP worked out at 2.19.

Molecule `COc1cccc([N+](=O)[O-])c1C(N)=O` gave a logP of -0.26.

As for `CC(=O)Nc1cc(C(F)(F)F)cc(Cl)c1Cl`, the logP came to 3.27.

With `CC(=O)Nc1cc(Cl)cc(C(F)(F)F)c1Br`, the logP is 3.26.

`CC(=O)Nc1cc(OC(F)(F)F)c(Cl)cc1Cl` gave a logP of 3.71.

For `O=[N+]([O-])c1cc(C(F)(F)F)cc([N+](=O)[O-])c1Cl`, the logP is 2.5.

`CCc1cc(NC(C)=O)ccc1Br` yielded a logP of 3.33.

`CC(=O)Nc1cc(F)cc(C(F)(F)F)c1Cl` yielded a logP of 2.86.

Consider `CC(=O)Nc1ccccc1I`, for which the logP is 1.62.

In the case of `CC(=O)Nc1ccc(C)c(Cl)c1`, the logP stood at 2.69.

For `N#Cc1ccc(C(N)=O)cc1`, the logP is 0.48.

For `NC(=O)c1ccccc1Br`, the logP is 0.77.

For the molecule `NC(=O)c1ccccc1I`, the logP worked out at 0.93.

`CCc1cccc(C(C)C)c1NC(C)=O` gave a logP of 2.1.

For the molecule `CCCc1cc(NC(C)=O)ccc1OC`, the logP was found to be 2.72.
